Results from article doi:10.1101/2024.08.19.608619, “Discovery of potent SARS-CoV-2 nsp3 macrodomain inhibitors uncovers lack of translation to cellular antiviral response” (bioRxiv, 2024).
Where two headings read alike, the source gives them in different places.

Columns and labels:
Experiment in all cases: biochemical
Set-up in all cases: In vitro kinase panel profiling, per cent remaining kinase activity at 10 uM
Lyn(h) = Lyn(h) (Homo sapiens, UniProt P07948); details: atp_concentration=70, read-out: % of control remaining
Description: (§1) We derisk potential for off-target activity by profiling the compound in a CEREP panel, a standard secondary pharmacology assessment, as well as a kinase panel to derisk a potential hinge-binding motif in our leads, and a PARP panel to derisk activity against human […]. Reassuringly, the compounds are selective, with the only off-targets being moderate human CHRM2 and KOR receptors activity associated with ASAP-0011198.

SAPK2a(h) = target: T1, SAPK2a(h) (Homo sapiens, UniProt Q16539); details: atp_concentration=90, read-out: % of control remaining
T1 construct: gene MAPK14
Description: as §1

Plk3(h) = Plk3(h) (Homo sapiens, UniProt Q9H4B4); details: atp_concentration=70, read-out: % of control remaining
Description: as §1

CDK1/cyclinB(h) = CDK1/cyclinB(h) (Homo sapiens, UniProt P06493); details: atp_concentration=45, read-out: % of control remaining
Description: as §1

PKG1α(h) = target: T2, PKG1α(h) (Homo sapiens, UniProt Q13976); details: atp_concentration=90, read-out: % of control remaining
T2 construct: gene PRKG1; isoform alpha
T2 sequence (Q13976 1-671): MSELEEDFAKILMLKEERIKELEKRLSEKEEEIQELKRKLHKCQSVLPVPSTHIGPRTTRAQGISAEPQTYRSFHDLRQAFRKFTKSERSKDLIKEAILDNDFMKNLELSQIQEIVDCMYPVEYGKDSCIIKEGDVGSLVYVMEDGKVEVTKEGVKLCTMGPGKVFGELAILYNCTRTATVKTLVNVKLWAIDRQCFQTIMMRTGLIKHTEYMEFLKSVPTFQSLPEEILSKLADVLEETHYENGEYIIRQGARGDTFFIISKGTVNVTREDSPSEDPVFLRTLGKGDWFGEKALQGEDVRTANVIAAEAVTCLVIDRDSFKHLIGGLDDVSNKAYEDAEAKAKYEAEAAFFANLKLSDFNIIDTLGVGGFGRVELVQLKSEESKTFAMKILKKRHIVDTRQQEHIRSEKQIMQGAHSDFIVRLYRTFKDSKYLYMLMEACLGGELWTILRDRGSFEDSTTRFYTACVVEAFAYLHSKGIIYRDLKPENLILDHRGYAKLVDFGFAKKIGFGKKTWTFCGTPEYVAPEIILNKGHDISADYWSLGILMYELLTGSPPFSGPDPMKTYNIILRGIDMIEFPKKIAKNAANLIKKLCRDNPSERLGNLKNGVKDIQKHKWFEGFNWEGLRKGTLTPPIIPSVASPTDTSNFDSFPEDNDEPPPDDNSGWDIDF
Description: as §1

eEF-2K(h) = target: T3, eEF-2K(h) (Homo sapiens, UniProt O00418); details: atp_concentration=15, read-out: % of control remaining
T3 construct: gene EEF2K
T3 sequence (O00418 1-725): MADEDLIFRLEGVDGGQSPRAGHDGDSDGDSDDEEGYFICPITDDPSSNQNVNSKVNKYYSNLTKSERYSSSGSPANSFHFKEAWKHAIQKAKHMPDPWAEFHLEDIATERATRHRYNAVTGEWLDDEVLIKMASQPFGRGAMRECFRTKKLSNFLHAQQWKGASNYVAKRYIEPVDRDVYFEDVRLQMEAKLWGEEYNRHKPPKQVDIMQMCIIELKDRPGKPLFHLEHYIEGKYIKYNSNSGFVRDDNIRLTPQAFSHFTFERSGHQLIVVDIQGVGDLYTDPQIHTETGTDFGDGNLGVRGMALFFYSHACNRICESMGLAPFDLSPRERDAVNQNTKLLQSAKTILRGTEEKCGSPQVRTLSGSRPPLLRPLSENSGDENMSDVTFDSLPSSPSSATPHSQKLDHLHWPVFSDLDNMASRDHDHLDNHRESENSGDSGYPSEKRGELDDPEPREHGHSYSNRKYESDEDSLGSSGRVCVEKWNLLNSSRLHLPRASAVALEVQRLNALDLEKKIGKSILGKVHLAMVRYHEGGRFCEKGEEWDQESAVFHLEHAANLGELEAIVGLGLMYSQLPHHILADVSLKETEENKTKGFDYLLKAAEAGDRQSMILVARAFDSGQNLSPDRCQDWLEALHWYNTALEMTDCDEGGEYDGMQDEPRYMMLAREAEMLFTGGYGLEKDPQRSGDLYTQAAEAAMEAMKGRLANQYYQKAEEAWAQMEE
Description: as §1

c-RAF(h) = target: T4, c-RAF(h) (Homo sapiens, UniProt P04049); details: atp_concentration=120, read-out: % of control remaining
T4 construct: gene RAF1
Description: as §1

CHK1(h) = target: T5, CHK1(h) (Homo sapiens, UniProt O14757); details: atp_concentration=90, read-out: % of control remaining
T5 construct: gene CHEK1
T5 sequence (O14757 1-476): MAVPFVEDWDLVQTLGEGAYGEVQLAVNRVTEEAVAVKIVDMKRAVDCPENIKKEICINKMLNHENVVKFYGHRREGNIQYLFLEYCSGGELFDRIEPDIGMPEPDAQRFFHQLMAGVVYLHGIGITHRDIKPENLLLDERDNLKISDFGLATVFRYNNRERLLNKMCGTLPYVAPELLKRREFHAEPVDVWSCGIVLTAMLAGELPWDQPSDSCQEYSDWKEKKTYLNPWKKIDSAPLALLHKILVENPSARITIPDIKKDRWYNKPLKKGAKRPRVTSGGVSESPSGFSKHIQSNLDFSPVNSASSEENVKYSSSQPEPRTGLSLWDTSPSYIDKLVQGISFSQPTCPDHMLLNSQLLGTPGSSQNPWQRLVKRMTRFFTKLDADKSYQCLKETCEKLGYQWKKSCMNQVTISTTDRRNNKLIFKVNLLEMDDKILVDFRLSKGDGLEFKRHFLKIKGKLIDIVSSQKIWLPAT
Description: as §1

CDK1/cyclinB(h), sequence (P06493 whole entry): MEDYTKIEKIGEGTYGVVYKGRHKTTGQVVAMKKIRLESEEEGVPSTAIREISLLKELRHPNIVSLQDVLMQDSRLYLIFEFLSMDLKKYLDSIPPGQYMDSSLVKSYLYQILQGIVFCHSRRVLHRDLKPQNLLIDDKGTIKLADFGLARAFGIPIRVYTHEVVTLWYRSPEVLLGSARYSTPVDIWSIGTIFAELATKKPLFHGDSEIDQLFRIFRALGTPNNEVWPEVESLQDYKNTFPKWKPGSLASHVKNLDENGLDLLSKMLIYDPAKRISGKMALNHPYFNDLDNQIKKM
CDK1/cyclinB(h), sequence (P14635 whole entry partner): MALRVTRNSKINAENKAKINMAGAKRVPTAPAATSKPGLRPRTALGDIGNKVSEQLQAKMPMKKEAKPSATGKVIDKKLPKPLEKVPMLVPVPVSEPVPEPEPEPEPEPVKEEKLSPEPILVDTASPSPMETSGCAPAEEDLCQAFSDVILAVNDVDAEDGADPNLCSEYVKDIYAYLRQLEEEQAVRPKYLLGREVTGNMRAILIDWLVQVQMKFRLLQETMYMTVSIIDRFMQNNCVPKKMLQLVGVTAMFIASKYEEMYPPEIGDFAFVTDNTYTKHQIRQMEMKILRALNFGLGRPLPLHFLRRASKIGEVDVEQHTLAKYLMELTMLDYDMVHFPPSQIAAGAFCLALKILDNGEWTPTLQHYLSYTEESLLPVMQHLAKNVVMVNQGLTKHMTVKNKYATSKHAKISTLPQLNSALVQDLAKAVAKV
T1 sequence (Q16539 whole entry): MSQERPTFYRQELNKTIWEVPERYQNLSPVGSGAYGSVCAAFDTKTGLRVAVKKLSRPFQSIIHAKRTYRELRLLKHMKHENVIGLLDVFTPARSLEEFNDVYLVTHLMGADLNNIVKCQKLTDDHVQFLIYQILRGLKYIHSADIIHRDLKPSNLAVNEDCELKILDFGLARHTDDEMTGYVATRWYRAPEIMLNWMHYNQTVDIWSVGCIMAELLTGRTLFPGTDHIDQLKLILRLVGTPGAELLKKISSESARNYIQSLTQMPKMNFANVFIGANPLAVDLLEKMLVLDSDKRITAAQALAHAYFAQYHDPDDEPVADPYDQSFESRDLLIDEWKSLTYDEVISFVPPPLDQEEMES
Plk3(h), sequence (Q9H4B4 whole entry): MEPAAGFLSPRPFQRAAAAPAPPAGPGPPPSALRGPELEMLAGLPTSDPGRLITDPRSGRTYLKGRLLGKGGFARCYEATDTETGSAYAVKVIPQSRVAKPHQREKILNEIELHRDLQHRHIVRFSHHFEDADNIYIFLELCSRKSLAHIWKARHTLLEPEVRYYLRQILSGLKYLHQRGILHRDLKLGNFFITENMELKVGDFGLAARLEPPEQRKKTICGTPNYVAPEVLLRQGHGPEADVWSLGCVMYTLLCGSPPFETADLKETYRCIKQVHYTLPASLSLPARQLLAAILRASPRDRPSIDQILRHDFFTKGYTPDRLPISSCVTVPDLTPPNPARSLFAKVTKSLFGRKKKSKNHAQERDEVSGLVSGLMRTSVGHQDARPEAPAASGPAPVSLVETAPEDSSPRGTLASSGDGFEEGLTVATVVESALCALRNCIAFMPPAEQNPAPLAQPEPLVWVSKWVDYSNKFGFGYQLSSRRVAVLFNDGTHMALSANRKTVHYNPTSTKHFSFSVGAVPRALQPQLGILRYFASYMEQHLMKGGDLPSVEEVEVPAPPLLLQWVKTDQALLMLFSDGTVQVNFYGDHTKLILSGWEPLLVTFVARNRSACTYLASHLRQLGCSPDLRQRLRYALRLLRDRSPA
T4 sequence (P04049 whole entry): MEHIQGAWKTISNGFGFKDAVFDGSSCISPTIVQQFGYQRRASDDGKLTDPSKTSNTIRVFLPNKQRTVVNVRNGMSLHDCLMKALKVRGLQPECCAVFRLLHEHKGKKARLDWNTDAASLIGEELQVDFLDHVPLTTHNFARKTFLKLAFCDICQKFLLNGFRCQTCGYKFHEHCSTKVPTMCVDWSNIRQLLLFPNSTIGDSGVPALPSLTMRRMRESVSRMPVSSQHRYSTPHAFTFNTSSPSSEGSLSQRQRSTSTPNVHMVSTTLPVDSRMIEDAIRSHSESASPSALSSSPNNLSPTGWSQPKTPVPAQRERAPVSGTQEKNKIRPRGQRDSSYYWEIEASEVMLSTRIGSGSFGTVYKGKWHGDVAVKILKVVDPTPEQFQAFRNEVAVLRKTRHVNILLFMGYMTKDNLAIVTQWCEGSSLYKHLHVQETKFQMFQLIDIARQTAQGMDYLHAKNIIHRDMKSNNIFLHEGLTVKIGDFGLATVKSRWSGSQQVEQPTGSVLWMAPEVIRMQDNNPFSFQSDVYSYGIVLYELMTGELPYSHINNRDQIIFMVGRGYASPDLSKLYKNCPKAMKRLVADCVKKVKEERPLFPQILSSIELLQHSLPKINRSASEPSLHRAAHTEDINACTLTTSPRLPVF
Lyn(h), sequence (P07948 whole entry): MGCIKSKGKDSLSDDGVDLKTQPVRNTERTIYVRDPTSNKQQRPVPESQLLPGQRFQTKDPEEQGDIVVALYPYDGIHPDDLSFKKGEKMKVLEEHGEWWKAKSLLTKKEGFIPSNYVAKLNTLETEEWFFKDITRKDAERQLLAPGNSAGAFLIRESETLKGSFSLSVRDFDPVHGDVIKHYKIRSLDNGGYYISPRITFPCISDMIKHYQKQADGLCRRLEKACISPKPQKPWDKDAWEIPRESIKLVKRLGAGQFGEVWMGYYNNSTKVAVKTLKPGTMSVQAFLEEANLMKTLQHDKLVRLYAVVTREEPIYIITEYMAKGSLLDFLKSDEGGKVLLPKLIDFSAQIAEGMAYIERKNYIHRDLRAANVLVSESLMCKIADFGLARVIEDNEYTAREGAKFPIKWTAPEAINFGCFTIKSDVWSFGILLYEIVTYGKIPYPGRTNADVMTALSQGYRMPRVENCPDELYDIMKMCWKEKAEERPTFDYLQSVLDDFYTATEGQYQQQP

Compound: CC(C)[C@@H](Nc1ncnc2[nH]c(-c3cnn(C)c3C#N)cc12)c1ccc2c(n1)OCCO2 [ASAP-0008418]
- remaining activity at 10 µM (Lyn(h); batch_name=ASAP-0008418-001): 61%
- remaining activity at 10 µM (SAPK2a(h); batch_name=ASAP-0008418-001): 103%
- remaining activity at 10 µM (Plk3(h); batch_name=ASAP-0008418-001): 90%
- remaining activity at 10 µM (CDK1/cyclinB(h); batch_name=ASAP-0008418-001): 95%
- remaining activity at 10 µM (PKG1α(h); batch_name=ASAP-0008418-001): 100%
- remaining activity at 10 µM (eEF-2K(h); batch_name=ASAP-0008418-001): 111%
- remaining activity at 10 µM (c-RAF(h); batch_name=ASAP-0008418-001): 81%
- remaining activity at 10 µM (CHK1(h); batch_name=ASAP-0008418-001): 108%

Compound: CC(C)[C@@H](Nc1ncnc2[nH]c(-c3cnn(C)c3C#N)cc12)c1ccc2c(n1)OCCO2 [ASAP-0010716]
- remaining activity at 10 µM (Lyn(h); batch_name=ASAP-0010716-002): 96%
- remaining activity at 10 µM (SAPK2a(h); batch_name=ASAP-0010716-002): 101%
- remaining activity at 10 µM (Plk3(h); batch_name=ASAP-0010716-002): 89%
- remaining activity at 10 µM (CDK1/cyclinB(h); batch_name=ASAP-0010716-002): 88%
- remaining activity at 10 µM (PKG1α(h); batch_name=ASAP-0010716-002): 123%
- remaining activity at 10 µM (eEF-2K(h); batch_name=ASAP-0010716-002): 106%
- remaining activity at 10 µM (c-RAF(h); batch_name=ASAP-0010716-002): 90%
- remaining activity at 10 µM (CHK1(h); batch_name=ASAP-0010716-002): 120%

Compound: Cc1nn(C)cc1-c1cc2c(NC(c3ccc4c(c3)S(=O)(=O)CCC4)C(C)C)ncnc2[nH]1 (centres unmarked) [ASAP-0011446]
- remaining activity at 10 µM (Lyn(h); batch_name=ASAP-0011446-002): 48%
- remaining activity at 10 µM (SAPK2a(h); batch_name=ASAP-0011446-002): 98%
- remaining activity at 10 µM (Plk3(h); batch_name=ASAP-0011446-002): 104%
- remaining activity at 10 µM (CDK1/cyclinB(h); batch_name=ASAP-0011446-002): 91%
- remaining activity at 10 µM (PKG1α(h); batch_name=ASAP-0011446-002): 128%
- remaining activity at 10 µM (eEF-2K(h); batch_name=ASAP-0011446-002): 98%
- remaining activity at 10 µM (c-RAF(h); batch_name=ASAP-0011446-002): 93%
- remaining activity at 10 µM (CHK1(h); batch_name=ASAP-0011446-002): 102%

Compound: COc1ccc([C@H](Cc2nnn[nH]2)NC(=O)c2ncnc3[nH]ccc23)cc1 [ASAP-0015381]
- remaining activity at 10 µM (Lyn(h); batch_name=ASAP-0015381-001): 108%
- remaining activity at 10 µM (SAPK2a(h); batch_name=ASAP-0015381-001): 103%
- remaining activity at 10 µM (Plk3(h); batch_name=ASAP-0015381-001): 102%
- remaining activity at 10 µM (CDK1/cyclinB(h); batch_name=ASAP-0015381-001): 98%
- remaining activity at 10 µM (PKG1α(h); batch_name=ASAP-0015381-001): 121%
- remaining activity at 10 µM (eEF-2K(h); batch_name=ASAP-0015381-001): 96%
- remaining activity at 10 µM (c-RAF(h); batch_name=ASAP-0015381-001): 103%
- remaining activity at 10 µM (CHK1(h); batch_name=ASAP-0015381-001): 110%
